Test results as given in patent EP0540090A2, “Liquid cleaning compositions” (UNILEVER N.V., priority 1991, dated 1993).
Read-outs that look alike come from different tables or passages of the source.

Key:
[1] = Precursor solubility in the liquid phase (2:1 nonionic surfactant blend Vista NI and Synperonic A3), by GC (TAED) and HPLC (rest)
[2] = Storage stability of precursor and percarbonate in the non-aqueous liquid formulation of Example 1; details: Example 1 formulation, after storage for 8 weeks at ambient temperature
Protocol: The following formulation containing various types of precursors was tested for percarbonate and precursor stability:

[3] = 2:1 nonionic surfactant combination (Vista NI and Synperonic A3), ambient temperature
[4] = 2:1 nonionic surfactant combination (Vista NI and Synperonic A3), ambient temperature, molar solubility multiplied by number of active groups

| Molecule | % w/w dissolved [1, 3] | mmol% active groups dissolved [1, 4] | stability precursor [2] | % w/w dissolved [1] | mmol% active groups dissolved [1] |
| --- | --- | --- | --- | --- | --- |
| C[N+](C)(C)Cc1ccc(C(=O)Oc2ccc(S(=O)(=O)[O-])cc2)cc1 [Compound A, 1-[4-(N,N,N-trimethylammoniummethyl)benzoyloxy] benzene-4-sulphonate] | <0.05 % w/w | <0.14 mmol% | 88% **) |  |  |
| C[N+](C)(C)c1ccc(C(=O)Oc2ccc(S(=O)(=O)[O-])cc2)cc1 [Compound E] | <0.01 % w/w | <0.03 mmol% |  |  |  |
| 2-(N,N,N-trimethylammonium)ethyl sodium 4-sulphophenyl carbonate [Compound B] |  |  |  | <0.025 % w/w | <0.08 mmol% |
